The text below walks through data of patent publication US8367700B2, “Substituted 4-(1.2,3,4-tetrahydroisoquinolin-2-yl)-4-oxobutyric acid amide as KCNQ2/3 modulators” (Gruenenthal GmbH, priority 2008, dated 2013).

The subject of one experiment is rat. The experiment can be described thus: Formalin test in the rat. Format: in vivo, Sprague Dawley rats. The following applies: phase II (21-27 min after formalin administration). How it is done: The formalin test (Dubuisson, D. and Dennis, S. G., 1977, Pain, 4, 161-174) is a model for acute and chronic pain. In the tests described here, the chronic pain component (phase II of the formalin test; time interval 21-27 min after formalin administration) was analysed.
A single formalin injection into the dorsal side of one rear paw was used to induce a biphase nociceptive response in experimental animals allowed to move freely, and the response was recorded by observation of three clearly distinguishable behaviour patterns.
Formalin is administered subcutaneously in a volume of 50 μl and a concentration of 5% into the dorsal side of the right rear paw of each animal. The vehicle and the substances to be tested are administered intravenously 5 minutes before or orally 30 minutes before the formalin injection.
The specific behavioural changes, such as lifting and shaking the paw, shifting of weight by the animal and biting and licking responses, are observed and recorded continuously for 60 minutes after formalin administration. The behavioural changes are weighted differently (score 0-3) and a pain rate (PR) calculated using the formula below: PR=[(T0×0)+(T1×1)+(T2×2)+(T3×3)/180.
Sprague Dawley rats (Janvier, Belgium) are used as the phylum. The weight of the animals is between 180 and 200 g. The group size was n=10.

For experiment [1], the target named is T1, hKCNQ2/3 (Homo sapiens, UniProt O43525+O43526). The experiment can be described thus: Voltage-clamp (patch-clamp) measurements on stably transfected hKCNQ2/3 CHO-K1 cell line. More on the design: expressed in transfected cells; host or cells: CHO-K1 (stably transfected). Format: cell-based. The following applies: 10 μM test substance at −40 mV, current increase normalised against retigabine (10 μM), read-out: Patch-clamp % Efficacy @ 10 μM (Retigabine = 100%). How it is done:
Voltage-Clamp Measurements
In order to confirm a KCNQ2/3 agonistic action of the substances electrophysiologically, patch-clamp measurements (Hamill O P, Marty A, Neher E, Sakmann B, Sigworth F J: Improved patch-clamp techniques for high-resolution current recording from cells and cell-free membrane patches, Pfluger's Arch. 1981 August; 391(2):85-100) were performed in voltage-clamp mode on a stably transfected hKCNQ2/3 CHO-K1 cell line. After formation of the gigaseal the cells were first clamped at a holding potential of −60 mV. Depolarising voltage jumps up to a potential of +20 mV were then applied (increment: 20 mV, duration: 1 second) in order to confirm the functional expression of KCNQ2/3-typical currents. The substances were tested at a potential of −40 mV. First of all the current increase induced by retigabine (10 μM) at −40 mV was recorded on each cell as a positive control. After completely washing out the retigabine effect (duration: 80 s) the test substance (10 μM) was applied. The current increase induced by the test substance was normalised against the retigabine effect and stated as the relative efficacy (see below).
For orientation: Patch clamp records ionic current or voltage across a cell membrane.

The target of experiment [2] is T1, hKCNQ2/3. The experiment can be described thus: Fluorescence assay using a voltage-sensitive dye (fluorimetry). It is filed as cell-based. More on the design: expressed in transfected cells; host or cells: CHO-K1. The following applies: CHO-K1 cells expressing KCNQ2/3. How it is done: Pharmacological Experiments Fluorescence Assay Using a Voltage-Sensitive Dye
Human CHO-K1 cells expressing KCNQ2/3 channels are cultivated adherently at 37° C., 5% CO2 and 95% humidity in cell culture bottles (e.g. 80 cm^2 TC flasks, Nunc) with DMEM-high glucose (Sigma Aldrich, D7777) including 10% FCS (PAN Biotech, e.g. 3302-P270521) or alternatively MEM Alpha Medium (1×, liquid, Invitrogen, #22571), 10% foetal calf serum (FCS) (Invitrogen, #10270-106, heat-inactivated) and the necessary selection antibiotics.
Before being sown out for the measurements, the cells are washed with a 1×DPBS buffer without Ca^2+/Mg^2+ (e.g. Invitrogen, #14190-094) and detached from the bottom of the culture vessel by means of Accutase (PAA Laboratories, #L11-007) (incubation with Accutase for 15 min at 37° C.). The cell count then present is determined using a CASY™ cell counter (TCC model, Scharfe System) in order subsequently to apply 20,000 to 30,000 cells/well/100 μl of the described nutrient medium, depending on density optimisation for the individual cell line, to 96-well measuring plates of the Corning™ CeIIBIND™ type (flat clear-bottom black polystyrene microplates, #3340).
Incubation is then carried out for one hour at room temperature, without gassing or adjusting the humidity, followed by incubation for 24 hours at 37° C., 5% CO2 and 95% humidity.
The voltage-sensitive fluorescent dye from the Membrane Potential Assay Kit (Red™ bulk format part R8123 for FLIPR, MDS Analytical Technologies™) is prepared by dissolving the contents of a vessel of Membrane Potential Assay Kit Red Component A in 200 ml of extracellular buffer (ES buffer, 120 mM NaCl, 1 mM KCl, 10 mM HEPES, 2 mM CaCl2, 2 mM MgCl2, 10 mM glucose; pH 7.4). After removal of the nutrient medium, the cells are washed with 200 μl of ES buffer, then covered with a layer of 100 μl of the dye solution prepared above and incubated for 45 min at room temperature with exclusion of light.
The fluorescence measurements are carried out with a BMG Labtech FLUOstar™ BMG Labtech NOVOstar™ or BMG Labtech POLARstar™ instrument (525 nm excitation, 560 nm emission, bottom-read mode). After incubation of the dye, 50 μl of the substances to be tested in the desired concentrations, or 50 μl of ES buffer for control purposes, are introduced into separate cavities of the measuring plate and incubated for 30 min at room temperature whilst being shielded from light. The fluorescence intensity of the dye is then measured for 5 min and the fluorescence value F1 of each well is thus determined at a given, constant time. 15 μl of a […] KCl solution ([…]) are then added to each well. The change in fluorescence is subsequently measured until all relevant measured values have been obtained (mainly 5-30 min). At a given time after KCl application, a fluorescence value F2 is determined, in this case at the time of the fluorescence peak.
For calculation, the fluorescence intensity F2 is compared with the fluorescence intensity F1, and the agonistic activity of the target compound on the potassium channel is determined therefrom. F2 and F1 are calculated as follows: […]
In order to determine whether a substance has an agonistic activity,
[formula] for example, can be compared with
[formula] of control cells.
[formula] is determined by adding to the reaction batch only the buffer solution instead of the substance to be tested, determining the value F1K of the fluorescence intensity, adding the potassium ions as described above and measuring a value F2K of the fluorescence intensity. Then F2K and F1K are calculated as follows: […]
A substance has an agonistic activity on the potassium channel if
[formula] is greater than
Independently of the comparison of
[formula] it is also possible to conclude that a target compound has an agonistic activity if an increase in
[formula] is to be observed as the dosage of the target compound increases. […]

pEC50: −log10 of the molar value.

T1 sequence (O43526 whole entry): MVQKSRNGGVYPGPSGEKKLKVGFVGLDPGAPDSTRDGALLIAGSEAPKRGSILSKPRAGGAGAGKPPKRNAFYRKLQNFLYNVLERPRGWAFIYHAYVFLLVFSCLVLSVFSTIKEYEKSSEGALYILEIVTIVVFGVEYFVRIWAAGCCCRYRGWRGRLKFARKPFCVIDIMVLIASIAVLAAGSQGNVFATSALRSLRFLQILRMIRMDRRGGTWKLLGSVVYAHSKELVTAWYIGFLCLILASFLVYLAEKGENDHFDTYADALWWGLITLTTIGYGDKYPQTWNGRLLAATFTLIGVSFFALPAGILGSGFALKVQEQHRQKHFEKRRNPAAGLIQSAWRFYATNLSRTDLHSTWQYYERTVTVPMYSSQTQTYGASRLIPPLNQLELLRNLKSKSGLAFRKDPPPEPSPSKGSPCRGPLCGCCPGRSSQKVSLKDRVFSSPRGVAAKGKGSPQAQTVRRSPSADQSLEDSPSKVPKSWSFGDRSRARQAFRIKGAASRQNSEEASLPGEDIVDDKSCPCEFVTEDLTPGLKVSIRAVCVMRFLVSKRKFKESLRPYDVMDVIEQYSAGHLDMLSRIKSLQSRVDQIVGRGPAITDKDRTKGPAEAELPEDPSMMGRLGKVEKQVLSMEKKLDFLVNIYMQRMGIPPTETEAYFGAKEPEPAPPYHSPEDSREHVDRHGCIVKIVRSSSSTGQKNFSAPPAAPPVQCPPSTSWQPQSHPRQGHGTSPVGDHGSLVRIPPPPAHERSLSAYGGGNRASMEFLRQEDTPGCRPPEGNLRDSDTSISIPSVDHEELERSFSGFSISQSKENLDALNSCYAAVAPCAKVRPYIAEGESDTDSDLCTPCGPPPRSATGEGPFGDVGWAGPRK
T1 sequence (O43525 whole entry): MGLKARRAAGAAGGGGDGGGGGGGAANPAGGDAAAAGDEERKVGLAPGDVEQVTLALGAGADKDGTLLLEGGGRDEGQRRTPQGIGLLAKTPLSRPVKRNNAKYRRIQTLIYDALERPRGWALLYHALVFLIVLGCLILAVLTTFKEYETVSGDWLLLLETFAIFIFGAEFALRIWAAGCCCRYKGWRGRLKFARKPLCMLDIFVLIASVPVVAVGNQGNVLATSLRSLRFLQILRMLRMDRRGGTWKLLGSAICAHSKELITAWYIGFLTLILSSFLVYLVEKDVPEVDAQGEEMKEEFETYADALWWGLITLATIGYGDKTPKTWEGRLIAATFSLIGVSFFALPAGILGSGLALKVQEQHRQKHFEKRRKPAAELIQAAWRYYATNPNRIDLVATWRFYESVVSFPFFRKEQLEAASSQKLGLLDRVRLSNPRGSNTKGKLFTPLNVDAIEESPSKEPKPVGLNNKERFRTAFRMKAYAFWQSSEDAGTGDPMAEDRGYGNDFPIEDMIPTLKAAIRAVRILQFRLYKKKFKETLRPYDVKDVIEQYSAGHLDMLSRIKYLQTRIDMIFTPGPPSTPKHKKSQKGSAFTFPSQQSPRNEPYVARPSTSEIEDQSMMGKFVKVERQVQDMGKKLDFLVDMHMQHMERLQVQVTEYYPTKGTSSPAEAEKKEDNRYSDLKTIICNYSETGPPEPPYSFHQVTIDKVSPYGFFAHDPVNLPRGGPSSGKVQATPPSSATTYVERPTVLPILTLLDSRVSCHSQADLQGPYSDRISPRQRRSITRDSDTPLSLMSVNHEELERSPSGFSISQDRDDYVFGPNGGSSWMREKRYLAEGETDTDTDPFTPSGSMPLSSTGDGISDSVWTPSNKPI

As for `O=C(CCC(=O)N1CCc2ccccc2C1c1ccccc1)NCc1cccc(C(F)(F)F)c1` (centres unmarked) [Example compound 1, 4-Oxo-4-(1-phenyl-3,4-dihydroisoquinolin-2(1H)-yl)-N-(3-(trifluoromethyl)benzyl)butyric acid amide], the “Formalin test rat i.v. @ 4.64 mg/kg % Reduction of nociceptive behaviour” value in the experiment on rat is given as 40%. Moreover, the Emax at 10 µM was found to be 78% on hKCNQ2/3 [1] and 110% at hKCNQ2/3 [2] (10 μM, relative to retigabine = 100%, read-out: Fluorimetry % Efficacy @ 10 μM (Retigabine = 100%)). The molecule further had a pEC50 at hKCNQ2/3 [2] of 5.72.
Turning to `O=C(CCC(=O)N1CCn2cccc2C1c1ccccc1)NCc1cccc(C(F)(F)F)c1` (centres unmarked) [Example no. 2 in WO2008/046582, reference compound], in the experiment with rat, the “Formalin test rat i.v. @ 4.64 mg/kg % Reduction of nociceptive behaviour” value is listed as “No effect”.

The pEC50 is the negative decadic logarithm of the EC50, by convention in mol/L. Read a high pEC50 as a low EC50.
